According to US9617310B2 (priority 2013, dated 2017):

How the values were obtained:
[1] = from C=CCCC[C@@H]1[C@H]2C[C@H]2C[C@H]1OC(=O)N[C@H](C(=O)N1C[C@H](Oc2nc3cc(Cl)ccc3nc2C=C)C[C@H]1C(=O)OC)C(C)(C)C; rcm bond; Zhan Catalyst-1B; DCE; 4.97 mM; 83.0 °C; 0.67 h
[2] = system: genotype 1a stable HCV replicon (H77) in Huh-7-derived cells; assay: Stable subgenomic HCV replicon, genotype 1a, Renilla luciferase; assay type: cell-based; settings: Hepatitis C virus, stable replicon genotype 1a, 72 h, read-out: EC50 1A RLUC
Protocol: (§1) Antiviral potency (EC50) was determined in both stable subgenomic HCV replicon cell lines and transient-transfected HCV replicon cells. The term half maximal effective concentration (EC50) refers to the concentration of a drug which induces a response halfway between the baseline and maximum after the exposure time specified below.
(§2) Stable subgenomic HCV replicons for genotype 1a, 1b, 2a, 3a, and 4a were established in Huh-7-derived cells as described by Lohmann et al (Lohmann V, Korner F, Koch J, et al Replication of subgenomic hepatitis C virus RNAs in a hepatoma cell line. Science 1999; 285:119-3). Each stable cell line contains a bicistronic HCV replicon that encodes a humanized Renilla luciferase (hRLuc) reporter gene fused to a selectable neomycin-resistance gene, followed by an EMCV IRES and the NS3-NS5B coding region of HCV. […] Luciferase activity was measured as a marker for intracellular HCV replication levels.
(§3) The genotype 1a stable replicon was derived from the H77 HCV strain and contained adaptive mutations P1496L and S2204I. The genotype 1b stable replicon was derived from the Con1 HCV strain and contained adaptive mutations E1202G, T1280I, and K1846T. […] The genotype 3a stable replicon was derived from the S52 HCV strain and contained adaptive mutations P1121 L, A1198T and S2210I (equivalent to S2204I in genotype 1). The genotype 4a stable replicon was derived from the ED43 HCV strain and contained adaptive mutations Q1691R and S2204I. All replicon cell lines were propagated in Huh-7-derived cells and maintained in Dulbecco's modified Eagle's Medium (DMEM) supplemented with 10% fetal bovine serum (FBS) and 0.5 mg/ml G418.
(§4) To perform EC50 assays, cells from each HCV replicon were dispensed into 384-well plates. Compounds were dissolved in DMSO at a concentration of 10 mM and diluted in DMSO using an automated pipetting instrument. Three-fold serially diluted compounds were directly added to the cells using an automated instrument. DMSO was used as a negative (solvent; no inhibition) control, and a combination of three HCV inhibitors including a protease inhibitor; an NS5A inhibitor and a nucleoside inhibitor was used at concentrations >100×EC50 as a positive control (100% inhibition). Seventy-two hours later, cells were lysed and Renilla luciferase activity were quantified as recommended by the manufacturer (Promega-Madison, Wis.). Non-linear regression was performed to calculate […], values.

NS3 genotype 3a protease = target: T1, NS3 genotype 3a protease (UniProt Q81258); assay: Ki determination, NS3 protease genotype 3a (fluorogenic depsipeptide substrate); assay type: biochemical, hepatitis C virus; settings: NS3 protease domain genotype 3a, NS4A peptide
T1 construct: Purified NS3 protease domain (amino acids 1-181) of the genotype 1b and 3a virus were generated as above; fused on or other part: N-terminal hexahistidine tag with an rTEV protease cleavage site (vector p28-N6H-Tev-NS3(181)3)
T1 sequence (Q81258 1033-1663): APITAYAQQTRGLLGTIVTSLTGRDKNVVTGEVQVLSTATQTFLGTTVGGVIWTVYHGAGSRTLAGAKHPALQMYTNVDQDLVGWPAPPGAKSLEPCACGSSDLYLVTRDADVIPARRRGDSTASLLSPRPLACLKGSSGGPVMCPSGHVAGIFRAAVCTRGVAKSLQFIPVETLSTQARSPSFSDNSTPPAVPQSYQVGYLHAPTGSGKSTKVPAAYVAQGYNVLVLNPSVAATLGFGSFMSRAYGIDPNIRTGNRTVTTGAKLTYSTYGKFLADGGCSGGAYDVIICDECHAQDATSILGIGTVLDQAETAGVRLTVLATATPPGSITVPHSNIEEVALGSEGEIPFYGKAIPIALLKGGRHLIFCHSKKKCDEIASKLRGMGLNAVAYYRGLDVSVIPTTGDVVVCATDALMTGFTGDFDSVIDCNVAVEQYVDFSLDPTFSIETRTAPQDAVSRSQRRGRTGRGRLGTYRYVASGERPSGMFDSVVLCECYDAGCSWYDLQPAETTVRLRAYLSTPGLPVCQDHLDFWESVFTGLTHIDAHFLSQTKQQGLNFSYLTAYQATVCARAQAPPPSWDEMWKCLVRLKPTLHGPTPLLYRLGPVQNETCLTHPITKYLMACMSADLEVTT
Excerpt: (§5) Ki Determination for Genotypes 1b and 3a NS3 Protease.
(§6) Purified NS3 protease domain (amino acids 1-181) of the genotype 1b and 3a virus were generated as above. The internally quenched fluorogenic depsipeptide substrate Ac-DED(Edans)-EEAbuψ[COO]ASK(Dabcyl)-NH2 and a synthetic peptide containing the hydrophobic core residues of the NS4A protein cofactor ([…]; NS4A peptide) were obtained from Anaspec, Inc. (San Jose, Calif.). Other chemicals and biochemicals were of reagent grade or better and were purchased from standard suppliers.
(§7) Reactions were run at room temperature in buffer consisting of 50 mM HEPES, 40% glycerol, 0.05% Triton X-100, 10 mM DTT, and 10% DMSO. The final assay solutions contained 50 pM NS3 genotype 1b protease or 200 pM genotype 3a protease, 20 μM NS4A peptide, and 4 μM substrate (genotype 1b) or 2 μM substrate (genotype 3a). Inhibitor concentrations varied from 100 nM to 5 pM in 3-fold dilutions, and no-inhibitor controls were included.
(§8) Compound dilutions were made in DMSO at 20× final concentration. Reaction mixtures were prepared in 96-well assay plates. A solution of enzyme and NS4A peptide in assay buffer (25 μL volume with both reagents at 4× final concentration) was mixed with 45 μL assay buffer and 5 μL of either inhibitor or DMSO, and pre-incubated at room temperature for 1 hour. The reaction was started by addition of 25 μL substrate solution at 4× final concentration. Plates were mixed vigorously for 5-10 seconds and reactions were allowed to proceed for 90 minutes. Fluorescence was measured every 30 s between 90 and 120 minutes reaction time using a Tecan InfiniTe M1000 or PerkinElmer Envision multimode plate reader with an excitation wavelength of 340 nm and an emission wavelength of 490 nm.
(§9) Rates were calculated from the progress curves at steady state, in the time frame of 90-120 minutes after addition of substrate. To determine the Ki, rates were plotted as a function of inhibitor concentration, and the data were fit with equation 1 (Morrison, J. F., Biochimica et Biophysica Acta 1969, 185, 269-286) to calculate Ki^app using GraphPad Prism 5. Active fraction of enzyme was determined by active site titration with known potent inhibitors. Ki was calculated from Ki^app/(1+[[S]/Km]).

[3] = system: genotype 2a stable HCV replicon (JFH-1) in Huh-7-derived cells; assay: Stable subgenomic HCV replicon, genotype 2a, Renilla luciferase; assay type: cell-based; settings: Hepatitis C virus, stable replicon genotype 2a, 72 h, read-out: EC50 2A RLUC
Protocol: as §1, §2, §3, §4

[4] = system: genotype 4a stable HCV replicon (ED43) in Huh-7-derived cells; assay: Stable subgenomic HCV replicon, genotype 4a, Renilla luciferase; assay type: cell-based; settings: Hepatitis C virus, 72 h, read-out: EC50 4A RLUC
Protocol: as §1, §2, §3, §4

[5] = system: genotype 1b stable HCV replicon (Con1) in Huh-7-derived cells; assay: Stable subgenomic HCV replicon, genotype 1b, Renilla luciferase; assay type: cell-based; settings: Hepatitis C virus, stable replicon genotype 1b, 72 h, read-out: EC50 1B RLUC
Protocol: as §1, §2, §3, §4

[6] = system: genotype 3a stable HCV replicon (S52) in Huh-7-derived cells; assay: Stable subgenomic HCV replicon, genotype 3a, Renilla luciferase; assay type: cell-based; settings: Hepatitis C virus, 72 h, read-out: EC50 3A RLUC
Protocol: as §1, §2, §3, §4

NS3 genotype 1b protease = target: T2, NS3 genotype 1b protease (Hepatitis C virus genotype 1b, UniProt Q9WMX2, E1202G); assay: Ki determination, NS3 protease genotype 1b (fluorogenic depsipeptide substrate); assay type: biochemical; settings: NS3 protease domain genotype 1b, NS4A peptide
T2 construct: Purified NS3 protease domain (amino acids 1-181) of the genotype 1b and 3a virus were generated as above; K3 hexahistidine tag (N); rTEV protease cleavage site (N); made in house; host or cells: E. coli BL21AI
T2 sequence (Q9WMX2 1027-1207 E1202G, other chains not shown): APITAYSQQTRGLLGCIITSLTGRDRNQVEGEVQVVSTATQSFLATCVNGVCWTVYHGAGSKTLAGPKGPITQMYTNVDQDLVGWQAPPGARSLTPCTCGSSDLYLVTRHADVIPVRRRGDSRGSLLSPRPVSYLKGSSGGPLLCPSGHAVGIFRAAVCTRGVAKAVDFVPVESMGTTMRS
Excerpt: as §5, §6, §7, §8, §9

| SMILES | ring closure, yield of all isomers [1] | EC50 [2] | Ki (NS3 genotype 3a protease) | EC50 [3] | EC50 [4] | EC50 [5] | EC50 [6] | Ki (NS3 genotype 1b protease) |
| --- | --- | --- | --- | --- | --- | --- | --- | --- |
| COC(=O)[C@@H]1C[C@@H]2CN1C(=O)[C@H](C(C)(C)C)NC(=O)O[C@@H]1C[C@@H]3C[C@@H]3[C@H]1CCCC=Cc1nc3ccc(Cl)cc3nc1O2 | 56.6% | – | – | – | – | – | – | – |
| COc1ccc2nc3c(nc2c1)O[C@@H]1C[C@@H](C(=O)N[C@]2(C(=O)NS(=O)(=O)C4CC4)C[C@H]2C(F)F)N(C1)C(=O)[C@H](C(C)(C)C)NC(=O)O[C@H]1[C@@H]2CC[C@@H](C2)[C@@H]1CCCCC3 [Example 6, (1S,4R,4aS,8S,11S,13R,25aS)-8-tert-butyl-N-[(1R,2R)-1-[(cyclopropylsulfonyl)carbamoyl]-2-(difluoromethyl)cyclopropyl]-17-methoxy-6,9-dioxo-2,3,4,4a,6,7,8,9,12,13,21,22,23,24,25,25a-hexadecahydro-1H,11H-1, 4:10,13-dimethanoquinoxalino[2,3-k][1,10,3,6]benzodioxadiazacyclononadecine-11-carboxamide] | – | 723 nM | 1.2 nM | 294 nM | 433 nM | 581 nM | 3.85 µM | 0.01 nM |
